Source: patent US9730446B2, “Herbicidal compositions comprising 4-amino-3-chloro-6-(4-chloro-2-fluoro-3-methoxyphenyl)pyridine-2-carboxylic acid or a derivative thereof and propyzamide” (Dow AgroSciences LLC, priority 2013, dated 2017)

How the values were obtained:
Assay type in all cases: in vivo
[1] = test system: SETFA Setaria faberi Herrm. (giant foxtail); assay: Postemergent herbicidal activity, greenhouse; settings: foliar, 14 d
Method: (§1) Evaluation of Postemergent Herbicidal Activity. Seeds or nutlets of the desired test plant species were planted in Sun Gro Metro-Mix® 360 planting mixture, which typically has a pH of 6.0 to 6.8 and an organic matter content of about 30 percent, in plastic pots with a surface area of 64 square centimeters (cm^2). […] The plants were grown for 7-21 days (d) in a greenhouse with an approximate 15 hour (h) photoperiod which was maintained at about 23-29° C. during the day and 22-28° C. during the night. Nutrients and water were added on a regular basis and supplemental lighting was provided with overhead metal halide 1000-Watt lamps as necessary. The plants were employed for testing when they reached the first or second true leaf stage.
(§2) A weighed amount, determined by the highest rate to be tested, of each test compound was placed in a 25 milliliter (mL) glass vial and was dissolved in 4 mL of a 97:3 volume per volume (v/v) mixture of acetone and dimethyl sulfoxide (DMSO) to obtain concentrated stock solutions. […] The concentrated stock solutions obtained were diluted with 20 mL of an aqueous mixture containing acetone, water, isopropyl alcohol, DMSO, Atplus 411F crop oil concentrate, and Triton® X-155 surfactant in a 48.5:39:10:1.5:1.0:0.02 v/v ratio to obtain spray solutions containing the highest application rates. Additional application rates were obtained by serial dilution of 12 mL of the high rate solution into a solution containing 2 mL of a 97:3 v/v mixture of acetone and DMSO and 10 mL of an aqueous mixture containing acetone, water, isopropyl alcohol, DMSO, Atplus 411F crop oil concentrate, and Triton X-155 surfactant in a 48.5:39:10:1.5:1.0:0.02 v/v ratio to obtain 1/2×, 1/4×, 1/8× and 1/16× rates of the high rate. Compound requirements are based upon a 12 mL application volume at a rate of 187 liters per hectare (L/ha). Formulated compounds were applied to the plant material with an overhead Mandel track sprayer equipped with 8002E nozzles calibrated to deliver 187 L/ha over an application area of 0.503 square meters (m^2) at a spray height of 18 inches (43 cm) above the average plant canopy height. Control plants were sprayed in the same manner with the solvent blank.
(§3) Treatments consisted of the methyl ester of 4-amino-3-chloro-6-(4-chloro-2-fluoro-3-methoxyphenyl)pyridine-2-carboxylic acid (Cmpd 1) as technical grade material and propyzamide (Kerb 50 W) alone and in combination.
(§4) The treated plants and control plants were placed in a greenhouse as described above and watered by subirrigation to prevent wash-off of the test compounds. After 14 d, the condition of the test plants as compared with that of the untreated plants was determined visually and scored on a scale of 0 to 100 percent where 0 corresponds to no injury and 100 corresponds to complete kill.
(§5) Colby's equation was used to determine the herbicidal effects expected from the mixtures (Colby, S. R. Calculation of the synergistic and antagonistic response of herbicide combinations. Weeds 1967, 15, 20-22). More specifically, the following equation was used to calculate the expected activity of mixtures containing two active ingredients, A and B: Expected=A+B−(A×B/100) A=observed efficacy of active ingredient A at the same concentration as used in the mixture; B=observed efficacy of active ingredient B at the same concentration as used in the mixture.

[2] = test system: BRSNW Brassica napus (winter oilseed rape); assay: Postemergent herbicidal activity, greenhouse; settings: foliar, 14 d
Method: as §1, §2, §3, §4, §5

[3] = test system: GLXMA Glycine max (volunteer soybean); assay: Postemergent herbicidal activity, greenhouse; settings: foliar, 14 d
Method: as §1, §2, §3, §4, §5

[4] = test system: STEME Stellaria media (L.) Vill. (common chickweed); assay: Postemergent herbicidal activity, greenhouse; settings: foliar, 14 d
Method: as §1, §2, §3, §4, §5

[5] = test system: CIRAR Cirsium arvense (L.) Scop. (Canada thistle); assay: Postemergent herbicidal activity, greenhouse; settings: foliar, 14 d
Method: as §1, §2, §3, §4, §5

[6] = test system: AMARE Amaranthus retroflexus L. (redroot pigweed); assay: Postemergent herbicidal activity, greenhouse; settings: foliar, 14 d
Method: as §1, §2, §3, §4, §5

[7] = test system: ABUTH Abutilon theophrasti Medik. (velvetleaf); assay: Postemergent herbicidal activity, greenhouse; settings: foliar, 14 d
Method: as §1, §2, §3, §4, §5

[8] = test system: EPHHL Euphorbia heterophylla L. (wild poinsettia); assay: Postemergent herbicidal activity, greenhouse; settings: foliar, 14 d
Method: as §1, §2, §3, §4, §5

[9] = test system: VIOTR Viola tricolor L. (wild violet); assay: Postemergent herbicidal activity, greenhouse; settings: foliar, 14 d
Method: as §1, §2, §3, §4, §5

[10] = test system: IPOHE Ipomoea hederacea (L.) Jacq. (ivyleaf morningglory); assay: Postemergent herbicidal activity, greenhouse; settings: foliar, 14 d
Method: as §1, §2, §3, §4, §5

[11] = test system: CHEAL Chenopodium album L. (common lambsquarters); assay: Postemergent herbicidal activity, greenhouse; settings: foliar, 14 d
Method: as §1, §2, §3, §4, §5

[12] = test system: POLCO Polygonum convolvulus L. (wild buckwheat); assay: Postemergent herbicidal activity, greenhouse; settings: foliar, 14 d
Method: as §1, §2, §3, §4, §5

winter oilseed rape = assay: Field trial, visual crop injury ratings; settings: varying rates, crop Growth Stage 39-50, 32, 49, and 74 days after treatment, in each case
Method: Multiple small plot research experiments were conducted to evaluate efficacy and tolerance of winter oilseed rape to compositions described herein. Typical small plots (2-4×4-10 meters (m)) were used in growers' fields under natural conditions with normal commercial cultural practices. Backpack sprayers were used to apply all treatments based on unit area. The methyl ester of formula (I) and propyzamide were tested alone and in combination at varying rates. Application water volume was 150 L/ha. Crop stage was at Growth Stage 39-50. Visual crop injury ratings were collected 32, 49, and 74 days after treatment. […] The reported values are means.

COC(=O)c1nc(-c2ccc(Cl)c(OC)c2F)cc(N)c1Cl [Cmpd I, methyl ester of 4-amino-3-chloro-6-(4-chloro-2-fluoro-3-methoxyphenyl)pyridine-2-carboxylic acid]
% control rated visually, ob (observed) ([1]; Cmpd I 2.5 g ae/ha): 0% | % control rated visually, ob (observed) ([1]; Cmpd I 5 g ae/ha): 5% | % control rated visually, ob (observed) ([1]; Cmpd I 10 g ae/ha): 35% | % control rated visually, ob (observed) ([2]; Cmpd I 2.5 g ae/ha): 0% | % control rated visually, ob (observed) ([2]; Cmpd I 5 g ae/ha): 0% | % control rated visually, ob (observed) ([2]; Cmpd I 10 g ae/ha): 10% | % control rated visually, ob (observed) ([3]; Cmpd I 2.5 g ae/ha): 80% | % control rated visually, ob (observed) ([3]; Cmpd I 5 g ae/ha): 87% | % control rated visually, ob (observed) ([3]; Cmpd I 10 g ae/ha): 100% | % control rated visually, ob (observed) ([4]; Cmpd I 2.5 g ae/ha): 50% | % control rated visually, ob (observed) ([4]; Cmpd I 5 g ae/ha): 57% | % control rated visually, ob (observed) ([4]; Cmpd I 10 g ae/ha): 72% | % control rated visually, ob (observed) ([5]; Cmpd I 2.5 g ae/ha): 47% | % control rated visually, ob (observed) ([5]; Cmpd I 5 g ae/ha): 53% | % control rated visually, ob (observed) ([5]; Cmpd I 10 g ae/ha): 65% | % control rated visually, ob (observed) ([6]; Cmpd I 2.5 g ae/ha): 50% | % control rated visually, ob (observed) ([6]; Cmpd I 5 g ae/ha): 58% | % control rated visually, ob (observed) ([6]; Cmpd I 10 g ae/ha): 77% | % control rated visually, ob (observed) ([7]; Cmpd I 2.5 g ae/ha): 87% | % control rated visually, ob (observed) ([7]; Cmpd I 5 g ae/ha): 85% | % control rated visually, ob (observed) ([7]; Cmpd I 10 g ae/ha): 90% | % control rated visually, ob (observed) ([8]; Cmpd I 2.5 g ae/ha): 85% | % control rated visually, ob (observed) ([8]; Cmpd I 5 g ae/ha): 93% | % control rated visually, ob (observed) ([8]; Cmpd I 10 g ae/ha): 100% | % control rated visually, ob (observed) ([9]; Cmpd I 2.5 g ae/ha): 30% | % control rated visually, ob (observed) ([9]; Cmpd I 5 g ae/ha): 43% | % control rated visually, ob (observed) ([9]; Cmpd I 10 g ae/ha): 62% | % control rated visually, ob (observed) ([10]; Cmpd I 2.5 g ae/ha): 20% | % control rated visually, ob (observed) ([10]; Cmpd I 5 g ae/ha): 38% | % control rated visually, ob (observed) ([10]; Cmpd I 10 g ae/ha): 43% | % control rated visually, ob (observed) ([11]; Cmpd I 2.5 g ae/ha): 82% | % control rated visually, ob (observed) ([11]; Cmpd I 5 g ae/ha): 90% | % control rated visually, ob (observed) ([11]; Cmpd I 10 g ae/ha): 91% | % control rated visually, ob (observed) ([12]; Cmpd I 2.5 g ae/ha): 35% | % control rated visually, ob (observed) ([12]; Cmpd I 5 g ae/ha): 25% | % control rated visually, ob (observed) ([12]; Cmpd I 10 g ae/ha): 48% | Visual crop injury rating (winter oilseed rape): 0 % injury
